Assays:
[1] = system: S. pyogenes; assay: MIC by standard CLSI agar dilution method, macrolide sensitive and resistant S. pyogenes; assay type: cell-based; set-up: MIC S. pyogenes Ery Susc. (801) / MIC S. pyogenes HLermB (3530): unit not given beside the values; conditions: 18 hrs at 37° C.; for MIC S. pyogenes Ery Susc. (801): strain Ery Susc. (801); for MIC S. pyogenes HLermB (3530): strain HLermB (3530), HL is High level resistance; for MIC S. pyogenes ermTR (810/806): strain ermTR (810/806); for MIC S. pyogenes mefA (806/763): strain mefA (806/763)
Method: (§1) The antibacterial activities of ketolide compounds of invention were evaluated by determining the minimal inhibitory concentration (MIC) according to standard CLSI agar dilution method. The media used for preculture and main culture were Tryptic Soya broth (Difco) and Mueller Hinton medium (Difco), respectively. The Mueller Hinton agar was supplemented with 5% sheep blood for streptococci and pneumococci, and with haemoglobin as well as NAD (nicotinamide adenine dinucleotide) for Haemophilus influenzae, respectively. Overnight cultures were diluted with buffered saline (pH 7.2) to the final cell density of 5×10^6-10^7 CFU/ml, and each bacterial suspension was applied with a replicator (Denley's multipoint inoculator, UK) onto a series of Mueller-Hinton agar plates containing antibacterial agents at various concentrations. Final inoculum was approximately 10^4 CFU/spot. The plates were incubated for 18 hrs at 37° C. The MIC was defined as the lowest concentration of an antibacterial agent that inhibits the development of visible microbial growth on agar.

[2] = system: S. pneumoniae; assay: MIC by standard CLSI agar dilution method, macrolide sensitive and resistant S. pneumoniae; assay type: cell-based; conditions: 18 hrs at 37° C.; for MIC S. pneumoniae Ery Susc. (49619): strain Ery Susc. (49619); for MIC S. pneumoniae HL-ermB (3773): strain HL-ermB (3773), HL is High level resistance; for MIC S. pneumoniae ermB (786): strain ermB (786); for MIC S. pneumoniae mefA (772): strain mefA (772)
Method: as §1

Compound	MIC S. pyogenes Ery Susc. (801) [1]	MIC S. pyogenes HLermB (3530) [1]	MIC S. pyogenes ermTR (810/806) [1]	MIC S. pyogenes mefA (806/763) [1]	MIC S. pneumoniae Ery Susc. (49619) [2]	MIC S. pneumoniae HL-ermB (3773) [2]	MIC S. pneumoniae ermB (786) [2]	MIC S. pneumoniae mefA (772) [2]
CC[C@H]1OC(=O)[C@H](C)C(=O)[C@H](C)[C@@H](O[C@@H]2O[C@H](C)C[C@H](N(C)C)[C@H]2O)[C@](C)(OC)C[C@@H](C)C(=O)[C@H](C)[C@H]2N(CCCCn3cnc(-c4cccnc4)c3)C(=O)O[C@]12C [Telithromycin, reference compound]	0.03	16.0	0.03	0.06	0.007	4.0	0.5	1.0
(11S,21R)-3-Decladinosyl-11,12-dideoxy-6-O-methyl-3-oxo-12,11-{oxycarbonyl-[E-amino-(2-(pyrimidin-2-yl)-1,3,4-thiadiazol-5-yl-methyl)oxy-imino-methylene]}-erythromycin A [Example 2]	0.007	0.25	0.015	0.06	0.007	1.0	0.06	0.25
(11S, 21R)-3-Decladinosyl-11,12-dideoxy-6-O-methyl-3-oxo-12,11-{oxycarbonyl-[E-amino-(2-(pyridin-2-yl)-1,3,4-thiadiazol-5-yl-methyl)oxy-imino-methylene]}-erythromycin A [Example 1]	0.015	0.5	0.015	0.06	0.007	1.0	0.06	0.06
